Experimental data taken from the supplement of paper PMC10307832.

Columns and labels:
Test in all cases: relative viability (nuclei count vs DMSO), 5 days (fraction); higher = more cells survive
HCC-44 = test system: HCC-44
Procedure, shortened: (§1)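 Values are medians from duplicate plates. Each reflects relative viability, defined as the nuclei count of treated wells over that of vehicle wells. Lung cancer cell lines in 1536-well plates were pin-tool dosed one day after seeding with one drug alone or with a fixed anchor-drug dose plus five library-drug doses (not always all listed) in √10 steps, then fixed, stained and imaged at 4× after 5 days.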

HCC-78 = test system: HCC-78
Procedure, shortened: as §1

NCI-H1623 = test system: NCI-H1623
Procedure, shortened: as §1

NCI-H1648 = test system: NCI-H1648
Procedure, shortened: as §1

NCI-H2087 = test system: NCI-H2087
Procedure, shortened: as §1

NCI-H322M = test system: NCI-H322M
Procedure, shortened: as §1

A549 = test system: A549
Procedure, shortened: as §1

NCI-H1563 = test system: NCI-H1563
Procedure, shortened: as §1

Compound | relative viability (HCC-44; first compound 0.02 µM) | relative viability (HCC-44; first compound 0.2 µM) | relative viability (HCC-44; first compound 0.6325 µM) | relative viability (HCC-44; first compound 2 µM) | relative viability (HCC-78; first compound 0.02 µM) | relative viability (HCC-78; first compound 0.6325 µM) | relative viability (HCC-78; first compound 2 µM) | relative viability (NCI-H1623; first compound 0.02 µM) | relative viability (NCI-H1623; first compound 0.2 µM) | relative viability (NCI-H1623; first compound 0.6325 µM) | relative viability (NCI-H1623; first compound 2 µM) | relative viability (NCI-H1648; first compound 0.02 µM) | relative viability (NCI-H1648; first compound 0.6325 µM) | relative viability (NCI-H1648; first compound 2 µM) | relative viability (NCI-H2087; first compound 0.02 µM) | relative viability (NCI-H2087; first compound 0.2 µM) | relative viability (NCI-H2087; first compound 0.6325 µM) | relative viability (NCI-H2087; first compound 2 µM) | relative viability (NCI-H322M; first compound 0.02 µM) | relative viability (NCI-H322M; first compound 0.2 µM) | relative viability (NCI-H322M; first compound 0.6325 µM) | relative viability (NCI-H322M; first compound 2 µM) | relative viability (A549; first compound 0.02 µM) | relative viability (A549; first compound 0.2 µM) | relative viability (A549; first compound 0.6325 µM) | relative viability (A549; first compound 2 µM) | relative viability (NCI-H1563; first compound 0.02 µM) | relative viability (NCI-H1563; first compound 0.2 µM) | relative viability (NCI-H1563; first compound 0.6325 µM) | relative viability (NCI-H1563; first compound 2 µM)
CN1CCN(CCOc2cc(OC3CCOCC3)c3c(Nc4c(Cl)ccc5c4OCO5)ncnc3c2)CC1 [Saracatinib] + Cc1cc(Nc2cc(N3CCN(C)CC3)nc(Sc3ccc(NC(=O)C4CC4)cc3)n2)n[nH]1 [Tozasertib] (partner 0.1 µM) | 0.967 | 0.891 | 1.48 | 1.05 | 0.403 | 0.572 | 0.405 | 0.447 | 0.443 | 0.456 | 0.348 | 0.629 | 0.813 | 0.362 | 0.224 | 0.206 | 0.258 | 0.231 | 0.501 | 0.313 | 0.439 | 0.255 |  |  |  |  |  |  |  | 
CN1CCN(CCOc2cc(OC3CCOCC3)c3c(Nc4c(Cl)ccc5c4OCO5)ncnc3c2)CC1 [Saracatinib] + N=C(N)NC(=N)NCCc1ccccc1 [Phenformin] (partner 250 µM) | 0.316 | 0.227 | 0.333 | 0.199 | 0.704 | 0.772 | 0.554 | 0.619 | 0.53 | 0.297 | 0.395 |  |  |  | 0.484 | 0.39 | 0.468 | 0.355 | 0.708 | 0.694 | 0.55 | 0.334 | 0.161 | 0.121 | 0.156 | 0.154 | 0.615 | 0.63 | 0.603 | 0.572
